Laboratory results taken from publication PMC6747015, “Structure–function study of a novel inhibitor of the casein kinase 1 family in Arabidopsis thaliana” (Plant Direct, 2019).

Assays:
CCA1:LUC seedlings = test: Bioluminescence-based circadian period lengthening in CCA1:LUC seedlings; assay type: in vivo, Arabidopsis thaliana
Procedure: Bioluminescence‐based circadian rhythms of CCA1:LUC plants treated with small molecules were analyzed by auto‐luminescence detection (Churitsu CL96) as described previously (Uehara et al., 2019). Period length was automatically calculated as previously described (Kamioka et al., 2016).
To estimate CK1 inhibitor activity in vivo, we choose to measure circadian period‐lengthening activity in Arabidopsis seedlings. The assay was made more efficient by monitoring the circadian period using a clock reporter plant line (CCA1:LUC) and an automated luminometer. These tools can be used to measure the circadian period with high confidence, and estimates of in vivo CK1 inhibitor activity are quantitative (Uehara et al., 2019). Four‐day‐old CCA1:LUC seedlings grown under 12‐hr light/12‐hr dark conditions were treated with IC261, PF‐670462, and PHA767491 at different concentrations, and seedling luminescence was monitored under constant light conditions. Dimethyl sulfoxide (DMSO), the solvent used for all of the CK1 inhibitors, was used as a control. IC261 lengthened the circadian period of CCA1:LUC seedlings in a dose‐dependent manner (Figure 1d), with a 2‐hr period lengthening at 500 µM. PF‐670462 and PHA767491 treatment concentrations also correlated with period lengthening (Figure 1e and f). The concentrations required for 2‐hr lengthening effects were 90 µM for PF‐670472 and 47 µM for PHA767491, which was consistent with previous work (Uehara et al., 2019). Thus, PHA767491 was the strongest in vivo CK1 inhibitor among the three inhibitors tested.

CKL8 (AT5G43320) = molecular target: T1, CKL8 (AT5G43320) (Arabidopsis thaliana, UniProt Q9LSX4); test: AMI‐329 bead binding with AMI‐331 competitor, CKL8
T1 construct: from tissue; host or cells: Arabidopsis seedlings, two weeks old
Procedure: (§1) Screening for proteins bound to AMI‐329 beads was done by a method similar to what has previously been described (Uehara et al., 2019). Briefly, two‐week‐old seedlings grown under LD conditions were harvested at time points ZT2, ZT6, ZT9, and ZT17, and stored at −80°C. Proteins from the frozen plant samples were incubated with 0, 5, or 50 µM of AMI‐331 at 4°C for 30 min with rotary mixing. Two technical replicates were used for each experiment. PBS‐washed AMI‐329 beads were added to the protein samples and gently rotated at 4°C for 1 hr. AMI‐329 bead resins were washed with bead buffer (Uehara et al., 2019) six times. The washed resins were suspended in SDS sample buffer and boiled for 8 min. Protein samples were in‐gel‐digested as previously described (Uehara et al., 2019). Peptides were analyzed with a Q Exactive hybrid quadrupole‐orbitrap mass spectrometer (Thermo Fisher Scientific), as described previously (Uehara et al., 2019). […]
(§2) However, another possible mechanism for the strong AMI‐331 biological activity in vivo is that it targets proteins other than the CK1 family for period lengthening. […] It is noteworthy that kinase AT4G08800 is very similar to the CKL family, but the ATP‐binding pocket of mammalian CK1 as determined by its crystal structure (Shinohara et al., 2017) was absent from AT4G08800, as shown in an Araport 11 model (https://www.araport.org). […]

LUP1 (AT1G78970) = molecular target: T2, LUP1 (AT1G78970) (Arabidopsis thaliana, UniProt Q9C5M3); test: AMI‐329 bead binding with AMI‐331 competitor, LUP1
T2 construct: from tissue; host or cells: Arabidopsis seedlings, two weeks old
Procedure: as §1, §2

Reductase C (AT2G41680) = molecular target: T3, Reductase C (AT2G41680) (Arabidopsis thaliana, UniProt O22229); test: AMI‐329 bead binding with AMI‐331 competitor, reductase C
T3 construct: Proteins from the frozen plant samples were incubated with 0, 5, or 50 µM of AMI‐331; from tissue; host or cells: two-week-old Arabidopsis seedlings (protein lysate)
Procedure: as §1, §2

CKL4 (AT4G28860) = molecular target: T4, CKL4 (AT4G28860) (Arabidopsis thaliana, UniProt Q8LPI7); test: AMI‐329 bead binding with AMI‐331 competitor, CKL4
T4 construct: from tissue; host or cells: Arabidopsis seedlings, two weeks old
Procedure: as §1, §2

CKL11 (AT4G14340) = molecular target: T5, CKL11 (AT4G14340) (Arabidopsis thaliana, UniProt Q39050); test: AMI‐329 bead binding with AMI‐331 competitor, CKL11
T5 construct: from tissue; host or cells: Arabidopsis seedlings, two weeks old
Procedure: as §1, §2

CKL1 (AT4G26100) = molecular target: T6, CKL1 (AT4G26100) (Arabidopsis thaliana, UniProt P42158); test: AMI‐329 bead binding with AMI‐331 competitor, CKL1
T6 construct: from tissue; host or cells: Arabidopsis seedlings, two weeks old
Procedure: as §1, §2

[1] = CCA1:LUC seedlings, constant light

T1 sequence (Q9LSX4 whole entry): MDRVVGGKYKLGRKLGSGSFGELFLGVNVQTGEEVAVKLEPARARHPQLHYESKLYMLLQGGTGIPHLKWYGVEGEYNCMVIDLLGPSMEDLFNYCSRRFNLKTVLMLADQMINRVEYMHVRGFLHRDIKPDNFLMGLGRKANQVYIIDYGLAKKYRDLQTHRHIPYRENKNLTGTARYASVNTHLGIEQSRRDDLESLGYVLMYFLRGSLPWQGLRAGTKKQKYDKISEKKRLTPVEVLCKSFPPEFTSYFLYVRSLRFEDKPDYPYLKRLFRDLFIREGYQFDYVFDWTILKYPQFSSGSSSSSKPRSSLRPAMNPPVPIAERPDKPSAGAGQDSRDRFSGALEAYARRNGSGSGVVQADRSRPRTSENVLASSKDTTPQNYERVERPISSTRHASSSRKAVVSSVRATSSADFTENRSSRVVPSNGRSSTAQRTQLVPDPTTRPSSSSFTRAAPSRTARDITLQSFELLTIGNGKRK
T6 sequence (P42158 whole entry): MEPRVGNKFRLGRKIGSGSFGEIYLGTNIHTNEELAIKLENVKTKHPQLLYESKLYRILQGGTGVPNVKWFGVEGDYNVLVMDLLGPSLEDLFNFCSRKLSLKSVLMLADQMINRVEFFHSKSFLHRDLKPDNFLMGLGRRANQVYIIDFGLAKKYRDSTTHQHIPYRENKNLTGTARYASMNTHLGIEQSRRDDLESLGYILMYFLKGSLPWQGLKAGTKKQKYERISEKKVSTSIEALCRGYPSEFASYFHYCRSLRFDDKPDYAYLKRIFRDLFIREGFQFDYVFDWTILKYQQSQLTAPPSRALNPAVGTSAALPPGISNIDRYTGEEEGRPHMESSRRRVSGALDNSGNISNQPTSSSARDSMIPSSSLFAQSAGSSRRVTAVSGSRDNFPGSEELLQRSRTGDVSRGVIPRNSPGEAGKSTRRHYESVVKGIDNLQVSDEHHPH
T2 sequence (Q9C5M3 whole entry): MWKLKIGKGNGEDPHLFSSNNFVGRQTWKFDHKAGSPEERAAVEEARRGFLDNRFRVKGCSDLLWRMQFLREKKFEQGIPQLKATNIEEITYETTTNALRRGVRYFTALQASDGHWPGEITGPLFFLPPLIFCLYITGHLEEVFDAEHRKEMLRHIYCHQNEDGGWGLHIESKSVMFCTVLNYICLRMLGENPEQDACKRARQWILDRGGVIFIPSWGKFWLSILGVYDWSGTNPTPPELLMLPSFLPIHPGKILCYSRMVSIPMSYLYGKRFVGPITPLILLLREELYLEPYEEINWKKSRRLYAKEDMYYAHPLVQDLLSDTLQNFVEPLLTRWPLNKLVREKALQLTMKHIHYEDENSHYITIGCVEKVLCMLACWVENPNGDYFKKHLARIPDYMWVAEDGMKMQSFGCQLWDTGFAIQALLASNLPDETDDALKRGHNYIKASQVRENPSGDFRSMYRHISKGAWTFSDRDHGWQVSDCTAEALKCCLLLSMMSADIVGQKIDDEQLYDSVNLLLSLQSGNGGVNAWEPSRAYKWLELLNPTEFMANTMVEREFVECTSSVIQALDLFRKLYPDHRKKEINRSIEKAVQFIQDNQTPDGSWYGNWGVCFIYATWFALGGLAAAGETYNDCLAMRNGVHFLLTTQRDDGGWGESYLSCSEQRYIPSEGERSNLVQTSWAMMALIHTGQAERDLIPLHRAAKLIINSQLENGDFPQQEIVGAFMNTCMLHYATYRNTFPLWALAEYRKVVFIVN
T5 sequence (Q39050 whole entry): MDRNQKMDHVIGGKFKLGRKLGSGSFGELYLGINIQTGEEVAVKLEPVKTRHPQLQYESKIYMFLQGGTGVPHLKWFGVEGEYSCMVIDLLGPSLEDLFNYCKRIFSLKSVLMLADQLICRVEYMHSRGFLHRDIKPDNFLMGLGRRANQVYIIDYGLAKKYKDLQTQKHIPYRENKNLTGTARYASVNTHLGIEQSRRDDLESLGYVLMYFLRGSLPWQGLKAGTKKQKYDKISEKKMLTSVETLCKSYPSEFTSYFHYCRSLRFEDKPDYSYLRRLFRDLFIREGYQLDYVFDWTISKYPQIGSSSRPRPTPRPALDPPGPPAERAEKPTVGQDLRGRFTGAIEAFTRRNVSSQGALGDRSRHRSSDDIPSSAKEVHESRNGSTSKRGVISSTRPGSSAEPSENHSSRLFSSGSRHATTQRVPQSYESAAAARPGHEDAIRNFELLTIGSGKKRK
T4 sequence (Q8LPI7 whole entry): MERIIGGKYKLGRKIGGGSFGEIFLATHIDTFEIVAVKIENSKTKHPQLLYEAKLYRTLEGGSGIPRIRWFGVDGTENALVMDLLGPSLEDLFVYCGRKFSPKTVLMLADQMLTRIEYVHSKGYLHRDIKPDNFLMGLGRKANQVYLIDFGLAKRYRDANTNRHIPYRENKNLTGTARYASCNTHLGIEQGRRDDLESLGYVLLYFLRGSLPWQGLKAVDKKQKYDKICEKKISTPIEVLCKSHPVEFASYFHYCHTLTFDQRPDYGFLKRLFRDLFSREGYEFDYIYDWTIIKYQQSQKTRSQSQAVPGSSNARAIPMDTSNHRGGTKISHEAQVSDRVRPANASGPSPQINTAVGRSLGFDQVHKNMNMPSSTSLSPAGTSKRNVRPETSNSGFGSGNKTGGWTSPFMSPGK
T3 sequence (O22229 68-529): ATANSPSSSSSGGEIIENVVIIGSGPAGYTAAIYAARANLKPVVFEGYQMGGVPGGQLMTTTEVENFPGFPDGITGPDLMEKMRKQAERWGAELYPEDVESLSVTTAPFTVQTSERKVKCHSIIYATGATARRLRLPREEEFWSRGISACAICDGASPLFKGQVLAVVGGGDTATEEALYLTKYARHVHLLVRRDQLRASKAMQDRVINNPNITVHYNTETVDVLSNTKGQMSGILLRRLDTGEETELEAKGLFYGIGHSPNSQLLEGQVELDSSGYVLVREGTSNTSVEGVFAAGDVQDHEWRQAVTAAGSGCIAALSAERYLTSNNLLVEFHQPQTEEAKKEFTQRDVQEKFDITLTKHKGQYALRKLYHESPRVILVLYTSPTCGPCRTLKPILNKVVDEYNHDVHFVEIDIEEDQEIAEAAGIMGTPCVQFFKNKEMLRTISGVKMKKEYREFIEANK

C#CCn1c2c(c(Br)c1-c1ccncc1)C(=O)NCC2.Cl [AMI‐331]
Concentration required for 2‐hr period lengthening (2hLC) (CCA1:LUC seedlings; [1]): 0.4 µM
Concentration required for 5‐hr period lengthening (5hLC) (CCA1:LUC seedlings; [1]): 1.4 µM
Concentration that significantly lengthens the circadian clock period (CCA1:LUC seedlings; in vivo): below 1 µM
Spectra (PSMs) AMI‐329 beads bound (CKL8 (AT5G43320); competitor AMI‐331 5 µM): 0 PSMs
Spectra (PSMs) AMI‐329 beads bound (CKL8 (AT5G43320); competitor AMI‐331 50 µM): 0 PSMs
Spectra (PSMs) AMI‐329 beads bound (LUP1 (AT1G78970); competitor AMI‐331 5 µM): 0 PSMs
Spectra (PSMs) AMI‐329 beads bound (LUP1 (AT1G78970); competitor AMI‐331 50 µM): 0 PSMs
Spectra (PSMs) AMI‐329 beads bound (Reductase C (AT2G41680); competitor AMI‐331 5 µM): 0 PSMs
Spectra (PSMs) AMI‐329 beads bound (Reductase C (AT2G41680); competitor AMI‐331 50 µM): 0 PSMs
Spectra (PSMs) AMI‐329 beads bound (CKL4 (AT4G28860); competitor AMI‐331 5 µM): 1 PSMs
Spectra (PSMs) AMI‐329 beads bound (CKL4 (AT4G28860); competitor AMI‐331 50 µM): 0 PSMs
Spectra (PSMs) AMI‐329 beads bound (CKL11 (AT4G14340); competitor AMI‐331 5 µM): 1 PSMs
Spectra (PSMs) AMI‐329 beads bound (CKL11 (AT4G14340); competitor AMI‐331 50 µM): 0 PSMs
Spectra (PSMs) AMI‐329 beads bound (CKL1 (AT4G26100); competitor AMI‐331 5 µM): 2 PSMs
Spectra (PSMs) AMI‐329 beads bound (CKL1 (AT4G26100); competitor AMI‐331 50 µM): 0 PSMs
